According to US11925696B2, “Carbonic anhydrase IX targeting agents and methods” (priority 2016, dated 2024):
Read-outs that look alike come from different tables or passages of the source.

Experiments:
HT-29 tumor xenografts = assay type: in vivo, mice
Experimental: Mice bearing HT-29 tumors were injected via tail vein with 4 nmol Hypoxyfluor alone or in combination with 100-fold excess CA IX inhibitor. Fluorescence images were acquired 4 hours post injection.
Tissues and organs were excised after whole animal imaging and the fluorescence images of the isolated tissues were acquired.
Mice bearing HT-29 tumors were injected via tail vein with the indicated concentrations of Hypoxyfluor and fluorescence images were acquired 4 hours post injection.
Using a 25-gauge needle, six-week-old female nu/nu mice were inoculated subcutaneously in their shoulders with HT-29 cells in RPMI1640 medium (5.0×10^6 cells per mouse). Tumor growth was measured in 2 perpendicular directions every 2 days with a caliper. Tumor volumes were calculated using the formula 0.5×L×W^2, where L is the measurement of the longest axis and W is the measurement of the axis perpendicular to L. Tumor bearing mice were treated via tail vein injection with different concentrations of Hypoxyfluor in the presence or absence of 100-fold CA IX ligand to block all unoccupied CA IX binding sites. Mice were imaged 4 hours post injection using a Caliper IVIS Lumina II Imaging station coupled to an ISOON5160 Andor Nikon camera equipped with Living Image Software Version 4.0. Image acquisition settings were as follows: lamp level, high; excitation, […]; emission, ICG; epi illumination; binning (M) 4; FOV, 12.5; f-stop, 4; acquisition time, 1 s.

HT-29 cells [1] = assay: Fluorescent/confocal microscopy of Hypoxyfluor and CA IX-Rhodamine on HT-29 cells; assay type: cell-based, human; details: 1 hour incubation, unbound conjugate washed off
Experimental: HT-29 cells (10^5) were seeded into chambered coverglass plates and allowed to grow to confluence over 48-72 hr. […] After incubation for 1 hour at 37° C., cells were rinsed three times with 1 mL of incubation solution to remove unbound fluorescence and 0.5 mL of fresh medium was added to the wells.
HT-29 cells that naturally express CA IX were used to determine cancer cell uptake and binding affinity of the newly synthesized conjugate. […] Fluorescence was quantitated as described above to determine binding affinity.

HT-29 cells [2] = assay: Binding of Hypoxyfluor to HT-29 cells (cell associated fluorescence); parameters: species or system human
Experimental: After washing, the remaining fluorescence was quantitated by fluorescence spectroscopy. Error bars represent standard deviation.
HT-29 cells (10^5) were seeded into 24-well BD purecoat amine plates and allowed to grow to confluence over 48-72 hr. Spent medium was replaced with 0.5 mL of fresh medium containing 0.5% bovine serum albumin, and various concentrations of the dye conjugate alone or the dye conjugate plus 100-fold excess CA IX ligand were added. After incubation for 1 hour at 37° C., cells were rinsed with incubation solution (2×1.0 mL) to remove unbound fluorescence and dissolved in 0.5 mL of 1% aqueous sodium dodecyl sulfate. Cell associated fluorescence was then measured using an excitation of 745 nm and emission of 790 nm. All experiments were performed in triplicate. The dissociation constant (KD) was calculated from a plot of cell bound fluorescence (RFU) versus the concentration of fluorescent conjugate added using the program, Graphpad Prism, and assuming a noncooperative single site binding equilibrium.

HT-29 xenografts = details: mouse, in vivo
Experimental: Additional mice were simultaneously injected with 100 nmol of unlabeled L2 or L3 ligand. Major tissues/organs were removed and the amount of radioactivity was determined. The percentage of injected dose/g of tissue was calculated and plotted. Error bars represent standard deviation.
Five-week-old male nu/nu mice were inoculated subcutaneously with HT-29 cells (5.0×10^6/mouse) on their shoulders. Growth of the tumors was measured in two perpendicular directions every 2 days using a caliper (body weights were monitored on the same schedule), and the volumes of the tumors were calculated as 0.5×L×W^2 (L=longest axis and W=axis perpendicular to L in millimeters). […] At various times, animals were sacrificed by CO2 asphyxiation. Images were acquired by shielding the kidneys via a Kodak Imaging Station (In-Vivo FX, Eastman Kodak Company) in combination with CCD camera and Kodak molecular imaging software (version 4.0). Radioimages: illumination source=radio isotope, acquisition time=3 min, f-stop=4, focal plane=5, FOV=160, binning=4. […] Radioactivity of preweighed tissues and ^99mTc-bound conjugates (10 nmol, 150 μCi) in saline (100 μL) was counted in a γ-counter. CPM values were decay corrected, and results were calculated as % injected dose (ID)/gram of wet tissue.

HT-29 cells [3] = assay: 99mTc conjugates binding to HT-29 cells (apparent KD, gamma counting); parameters: species or system human
Experimental: HT-29 cells (150,000 cells/well in 500 μL) were seeded into 24-well Falcon plates and allowed to form monolayers over 48 h. […] After incubating for 1 h at 37° C., cells were rinsed twice with 1 mL of medium and 1 mL of tris buffer. After dissolving in 0.5 mL of 0.25 M NaOH (aq), cells were transferred into individual γ-counter tubes and radioactivity was counted using a γ-counter (Packard, Packard Instrument Company). Apparent KD was calculated by plotting bound radioactivity versus the concentration of radiotracer using GraphPad Prism 4.

[4] = 4 nmol tail vein, 4 hours post injection

`COC(=O)N(CCN(CC(=O)NCCOCCOCCOCCOCCOCCOCCOCCOCCOCCOCCOCCOCCC(=O)CCCc1ccc(OC2=C(/C=C/C3=[N+](CCCCS(=O)(=O)O)c4ccc(S(=O)(=O)O)cc4C3(C)C)CCC/C2=C\C=C2\N(CCCCS(=O)(=O)O)c3ccc(S(=O)(=O)O)cc3C2(C)C)cc1)CC(=O)Nc1ccc(S(N)(=O)=O)cc1)CC(=O)Nc1ccc(S(N)(=O)=O)cc1` [Hypoxyfluor] was tested, and the whole animal fluorescence (HT-29 tumor xenografts; [4]) was “predominately detected in the tumor”, the “whole animal fluorescence with 400 nmol CA IX ligand” value (HT-29 tumor xenografts; [4]) was “no fluorescent signal could be detected” and the “whole body fluorescence, dose escalation” value (HT-29 tumor xenografts; 40 nmol/mouse) was “nontumor associated fluorescence became apparent”. For the same molecule, the “whole body fluorescence, dose escalation” value (HT-29 tumor xenografts; low and intermediate doses (3 and 13 nmol)) was “fluorescence was restricted to the tumor”, the “location of binding on cultured HT-29 cells” value (HT-29 cells [1]) was “binding was seen on both the cell surface and internal endosomes” and the Kd (HT-29 cells [2]; 1 hour at 37° C., excitation 745 nm, emission 790 nm, triplicate, read-out: apparent dissociation constant) was 45 nM. The “binding after pre-incubation with 100-fold excess of the unconjugated ligand” value (HT-29 cells [2]; HT-29 cells) was “binding was competed”.

`N[C@H](CNC(=O)CCOCCOCCOCCOCCOCCOCCOCCOCCOCCOCCOCCOCCNC(=O)CN(CCN(CC(=O)O)CC(=O)Nc1ccc(S(N)(=O)=O)cc1)CC(=O)Nc1ccc(S(N)(=O)=O)cc1)C(=O)N[C@@H](CC(=O)O)C(=O)NC[C@H](CS)C(=O)O` [L2-PEG12-EC20] was tested, and the “overall percentage of the injected dose retained in the tissues” value (HT-29 xenografts) was “somewhat lower overall percentage of the injected dose being retained in the tissues”, the Kd (HT-29 cells [3]; 99mTc-bound conjugate, 1 h at 37° C., read-out: Binding Affinity (apparent KD)) was 54 nM and the “decrease of binding by addition of the PEG12-EC20” value (HT-29 cells [3]; binding affinity of conjugate versus reported Ki of original ligand) was roughly 7 fold.
